Source: patent US6596878B2, “Methods and compositions for inhibiting cell proliferative disorders” (Yissum Research & Development Company of the Hebrew …, priority 1994, dated 2003)
Read-outs that look alike come from different tables or passages of the source.

What was measured:
human EGF receptor = target: T1, human EGF receptor (Homo sapiens, UniProt P00533); test: EGF-receptor whole cell kinase assay (EGFR-3T3); format: cell-based
T1 construct: expressed in transfected cells; host or cells: NIH3T3 clone C7 (EGFR/C7; mouse fibroblasts)
Method: (§1) The following target cells were used for cellular kinaseassays: NIH3T3 clone C7 (Honegger et al., supra) engineered to over-express human EGF receptor; NIH3T3 cells engineered to over-express a chimeric receptor containing the EGFR extracellular domain and the HER2 intracellular kinase domain; the human mammary carcinoma line BT474 (ATCC HTB2) expressing HER2; and the human glioblastoma line U1242 that expresses PDGFR-β. Growth assays were carried out using human mammary epithelial SKBR3 (ATCC HTB30) cells, SKOV3 (ATCC HTB77) human ovarian cancer cell line, A431 cells, MCF7 human breast carcinoma cells, MCF7 cells overexpress the HER2 kinase (MCF7-HER2), NIH3T3 cells, and NIH3T3 cells overexpressing the HER2 kinase (3T3-HER2).
Unless otherwise stated the effect of various compounds on receptor tyrosine kinases were assayed as described in this section.
1. EGF-receptor Whole Cell Kinase Assay
EGFR kinase activity (EGFR-3T3 assay) in whole cells was measured as described below:
The following protocol was used:
A. Coat ELISA plates (Corning, 96 well, Cat. #25805-96) with 05-101 antibody at 0.5 μg per well in PBS, 150 μl final volume/well, and store overnight at 4° C. Coated plates are good for up to 10 days when stored at 4° C.
B. On day of use, remove coating buffer and replace with blocking buffer (5% Carnation Instant Non-Fat Dry Milk in PBS). Incubate the plate, shaking, at room temperature (about 23° C. to 25° C.) for 30 minutes. Just prior to use, remove blocking buffer and wash plate 4 times with TBST buffer.
A. EGFR/C7 cell line (Honegger, et al., Cell 51:199-209, 1987) can be use for this assay.
B. Choose dishes having 80-90% confluence for the experiment. Trypsinize cells and stop reaction by adding 10% CS DMEM medium. Suspend cells in DMEM medium (10% CS DMEM medium) and centrifuge once at 1000 rpm, and once at room temperature for 5 minutes.
C. Resuspend cells in seeding medium (DMEM, 0.5% bovine serum), and count the cells using trypan blue. Viability above 90% is acceptable. Seed cells in DMEM medium (0.5% bovine serum) at a density of 10,000 cells per well, 100 μl per well, in a 96 well microtiter plate. Incubate seeded cells in 5% CO2 at 37° C. for about 40 hours.
A. Check seeded cells for contamination using an inverted microscope. Dilute drug stock (10 mg/ml in DMSO) 1:10 in DMEM medium, then transfer 5 μl to a test well for a final drug dilution of 1:200 and a final DMSO concentration of […]. Control wells receive DMSO alone. Incubate in 5% CO2 at 37° C. for one hour.
B. Prepare EGF ligand: dilute stock EGF in DMEM so that upon transfer of 10 μl dilute EGF (1:12 dilution), 25 nM final concentration is attained.
C. Prepare fresh HNTG* sufficient for 100 μl per well; and place on ice.
D. After two hours incubation with drug, add prepared EGF ligand to cells, 10 μl per well, to yield a final concentration of 25 nM. Control wells receive DMEM alone. Incubate, shaking, at room temperature, for 5 minutes.
E. Remove drug, EGF, and DMEM. Wash cells twice with PBS. Transfer HNTG* to cells, 100 μl per well. Place on ice for 5 minutes. Meanwhile, remove blocking buffer from other ELISA plate and wash with TBST as described above.
F. With a pipette tip securely fitted to a micropipettor, scrape cells from plate and homogenize cell material by repeatedly aspirating and dispensing the HNTG* lysis buffer. Transfer lysate to a coated, blocked, and washed ELISA plate. Incubate shaking at room temperature for one hour.
G. Remove lysate and wash 4 times with TBST. Transfer freshly diluted anti-Ptyr antibody to ELISA plate at 100 μl per well. Incubate shaking at room temperature for 30 minutes in the presence of the anti-Ptyr antiserum (1:3000 dilution in TBST).
H. Remove the anti-Ptyr antibody and wash 4 times with TBST. Transfer the freshly diluted TAGO anti-rabbit IgG antibody to the ELISA plate at 100 μl per well.

HER2 = target: T2, HER2 (Homo sapiens, UniProt P04626); test: HER2-BT474 whole cell kinase ELISA; format: cell-based
T2 construct: the human mammary carcinoma line BT474 (ATCC HTB2) expressing HER2; endogenous in cells; host or cells: BT474 human mammary carcinoma cells
Method: HER2-BT474 assays measuring whole cell HER2 activity was carried out as described below:
All the following steps are at room temperature and aseptically, unless stated otherwise. All ELISA plate washing is by rinsing with distilled water three times and once with TBST.
Incubate the cells in 5% CO2 at 37° C. overnight.
2. ELISA Plate Coating and Blocking

A431 cells = test: A431 growth assay (sulphorhodamine B); format: cell-based; settings: Homo sapiens, A-431, 96 h; Table V; 4 days, SRB; read-out: Estimated IC50 Growth Assays A431 cells
From the text: as §1, with “This example illustrates the ability of the exemplary compounds to inhibit receptor tyrosine kinases, such as HER2 and/or EGFR. The” for “The”
SKBR3 cells over-express HER2. A431 cells over-express EGFR. These cells were dispensed into 96-well plates with test compounds. After 4 days the monolayers were TCA-fixed then stained with sulphorhodamine B. The absorbance versus log drug concentration was plotted and IC50 values estimated.
(4) Tris, crystallized free base—Fisher Catalog #BP152 Working solution: 10 mM tris=1.211 gram Trizma base/liter H2O. […]
(11) Read optical density at dual wavelength mode 570 nm and 630 nm on Dynatech ELISA plate reader, Model MR 5000.

[1] = tested on: MCF7 human breast carcinoma cells; test: MCF-7 SRB growth assay; format: cell-based; settings: Table VI, 10% FBS, four days
From the text: as §1, with “This example illustrates the ability of the exemplary compounds to inhibit receptor tyrosine kinases, such as HER2 and/or EGFR. The” for “The”
6. MCF-7 SRB Growth Assay
(§2) MCF-7 cells are seeded at 2000 cells/ well in a 96-well flat bottom plate in normal growth media, which was 10% FBS/RPMI supplemented with 2 mM Glutamine. The plate of cells is incubated for about 24 hours at 37° C. after which it receives an equal volume of compound dilution per well making the total volume per well 200 μl. The compound is prepared at 2 times the desired highest final concentration and serially diluted in the normal growth media in a 96-well round bottom plate and then transferred to plate of cells. DMSO serves as the vector control up to 0.2% as final concentration. The cells are then incubated at 37° C. in a humidified 5% CO2 incubator.
(§3) Four days following dosing of compound, the media is discarded and 200 μl/well of ice-cold 10% TCA (Trichloroacetic Acid) is added to fix cells. After 60 minutes at 4° C., the TCA is discarded and the plate is rinsed 5 times with water. The plate is then air-dried and 100 μl/well of 0.4% SRB (Sulforhodamine B from Sigma) in 1% Acetic Acid is added to stain cells for 10 minutes at room temperature. The SRB is discarded and the plate is rinsed 5 times with 1% Acetic Acid. After the plate is completely dried, 100 μl/well of 10 mM Tris-base is added to solubilize the dye. After 5 to 10 minutes, the plate is read on a Dynatech ELISA Plate Reader at dual wavelengths at 570 nm and 630 nm.

[2] = tested on: MCF7 cells overexpress the HER2 kinase (MCF7-HER2); test: MCF-7/HER-2 SRB growth assay; format: cell-based, human; settings: Table VI, 0.5% FBS, four days
From the text: as §1, with “This example illustrates the ability of the exemplary compounds to inhibit receptor tyrosine kinases, such as HER2 and/or EGFR. The” for “The”
as §2, §3
8. MCF-7/HER-2 SRB Growth Assay
The protocol is basically the same as that above (for the MCF-7 Growth Assay) except that immediately before the compound is added, the normal growth media is removed and 0.5% FBS/RPMI supplemented with 2 mM Glutamine is added onto the cells. The compound is also prepared in this 0.5% serum media. The plate of cells is incubated for four days and developed as usual.

[3] = Table V, read-out: Estimated IC50 Cellular Kinase Assays EGFR (EGF-3T3)
[4] = Table V, read-out: Estimated IC50 Cellular Kinase Assays HER2 (BT474)
[5] = Table III, cellular kinase assay, class symbol, read-out: EGFR
[6] = Table III, cellular kinase assay, class symbol, read-out: HER2
[7] = Table VI, cellular kinase assay, read-out: EGFR-3T3
[8] = HER2-BT474, Table VI, cellular kinase assay
[9] = Table VI, cellular kinase assay, read-out: HER2-BT474
[10] = Estimated IC50 Cellular Kinase Assays HER2 (BT474), Table V

T1 sequence (P00533 25-1210): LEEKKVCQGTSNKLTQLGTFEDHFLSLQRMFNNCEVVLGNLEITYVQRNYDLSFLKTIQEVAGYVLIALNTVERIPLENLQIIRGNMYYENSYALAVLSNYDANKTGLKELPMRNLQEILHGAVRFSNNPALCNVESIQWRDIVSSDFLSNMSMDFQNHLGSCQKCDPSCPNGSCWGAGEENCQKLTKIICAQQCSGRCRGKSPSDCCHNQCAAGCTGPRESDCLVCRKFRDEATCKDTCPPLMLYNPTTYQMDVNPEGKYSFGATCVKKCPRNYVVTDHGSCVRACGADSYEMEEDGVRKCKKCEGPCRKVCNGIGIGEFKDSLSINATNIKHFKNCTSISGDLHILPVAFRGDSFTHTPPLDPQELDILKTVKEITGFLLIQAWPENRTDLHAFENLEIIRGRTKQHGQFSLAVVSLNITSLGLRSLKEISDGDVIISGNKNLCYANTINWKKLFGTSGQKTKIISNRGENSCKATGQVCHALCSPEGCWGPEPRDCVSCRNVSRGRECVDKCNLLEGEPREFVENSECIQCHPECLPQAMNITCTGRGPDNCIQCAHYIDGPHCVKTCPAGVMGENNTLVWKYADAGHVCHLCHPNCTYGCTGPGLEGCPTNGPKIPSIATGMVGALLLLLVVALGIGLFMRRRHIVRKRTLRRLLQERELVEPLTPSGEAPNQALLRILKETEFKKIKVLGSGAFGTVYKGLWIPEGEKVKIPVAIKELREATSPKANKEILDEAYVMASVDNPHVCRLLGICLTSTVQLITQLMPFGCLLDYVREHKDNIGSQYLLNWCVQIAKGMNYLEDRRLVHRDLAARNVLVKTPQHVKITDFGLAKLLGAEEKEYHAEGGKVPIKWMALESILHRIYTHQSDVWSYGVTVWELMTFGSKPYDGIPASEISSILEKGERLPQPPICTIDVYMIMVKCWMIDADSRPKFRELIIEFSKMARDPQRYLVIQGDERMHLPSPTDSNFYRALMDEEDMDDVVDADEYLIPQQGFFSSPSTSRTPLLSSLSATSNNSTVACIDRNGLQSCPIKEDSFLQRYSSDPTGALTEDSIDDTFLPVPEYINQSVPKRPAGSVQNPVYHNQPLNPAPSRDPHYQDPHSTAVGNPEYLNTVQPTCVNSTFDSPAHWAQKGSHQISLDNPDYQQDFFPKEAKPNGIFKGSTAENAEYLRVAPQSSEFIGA
T2 sequence (P04626 23-1255): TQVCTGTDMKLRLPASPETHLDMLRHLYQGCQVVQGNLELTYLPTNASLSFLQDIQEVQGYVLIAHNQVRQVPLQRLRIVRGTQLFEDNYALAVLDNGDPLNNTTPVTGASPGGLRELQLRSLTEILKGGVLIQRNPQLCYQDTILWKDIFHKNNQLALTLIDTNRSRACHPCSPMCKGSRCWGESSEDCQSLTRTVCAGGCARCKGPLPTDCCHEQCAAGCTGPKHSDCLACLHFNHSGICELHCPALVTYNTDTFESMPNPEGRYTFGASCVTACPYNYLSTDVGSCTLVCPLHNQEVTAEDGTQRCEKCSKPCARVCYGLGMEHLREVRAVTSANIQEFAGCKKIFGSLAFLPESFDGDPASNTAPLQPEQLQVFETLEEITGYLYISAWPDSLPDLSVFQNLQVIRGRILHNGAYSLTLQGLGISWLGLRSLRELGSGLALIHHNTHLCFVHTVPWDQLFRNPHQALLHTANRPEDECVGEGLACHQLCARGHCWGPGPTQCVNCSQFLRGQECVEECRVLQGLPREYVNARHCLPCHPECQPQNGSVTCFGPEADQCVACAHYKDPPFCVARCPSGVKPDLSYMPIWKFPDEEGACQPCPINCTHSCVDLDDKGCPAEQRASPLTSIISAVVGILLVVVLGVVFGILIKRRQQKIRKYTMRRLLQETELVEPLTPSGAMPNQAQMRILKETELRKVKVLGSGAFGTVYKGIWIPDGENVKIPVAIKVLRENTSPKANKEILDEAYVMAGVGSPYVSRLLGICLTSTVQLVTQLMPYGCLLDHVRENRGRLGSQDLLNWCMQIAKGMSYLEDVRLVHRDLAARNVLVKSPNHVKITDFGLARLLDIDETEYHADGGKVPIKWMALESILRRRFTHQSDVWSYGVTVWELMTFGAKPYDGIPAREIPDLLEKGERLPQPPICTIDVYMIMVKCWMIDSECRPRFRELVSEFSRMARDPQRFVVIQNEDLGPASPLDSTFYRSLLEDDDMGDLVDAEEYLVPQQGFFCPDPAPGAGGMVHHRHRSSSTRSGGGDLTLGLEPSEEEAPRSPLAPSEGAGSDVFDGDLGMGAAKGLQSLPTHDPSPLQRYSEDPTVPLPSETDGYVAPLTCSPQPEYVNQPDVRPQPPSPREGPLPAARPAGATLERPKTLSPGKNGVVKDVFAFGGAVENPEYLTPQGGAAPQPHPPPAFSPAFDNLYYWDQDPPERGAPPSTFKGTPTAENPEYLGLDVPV

Row | IC50 (human EGF receptor; [3]) [µM] | IC50 (HER2; [4]) [µM] | IC50 (human EGF receptor; [7]) [µM] | IC50 (HER2; [9]) [µM] | SMILES | further results
1 | 25 | 25 |  |  | Clc1cc2ncc(-c3ccccc3)nc2cc1Cl [Compound R14] | 
2 | 0.04 | 7.14 |  |  | Cc1ccc2ncnc(Nc3cccc(Cl)c3)c2c1 [Compound P12a] | IC50 (human EGF receptor; [5]): < 50 µM; IC50 (HER2; [6]): < 50 µM; IC50 (A431 cells): 10 µM
3 | 22.2 | > 50 |  |  | Cc1ccc2ncnc(Nc3ccc4c(c3)OCO4)c2c1 [Compound P14a] | IC50 (human EGF receptor; [5]): < 50 µM; IC50 (HER2; [6]): > 50 µM
4 | 35.5 | 20.7 |  |  | Cc1cc2nc(CBr)c(-c3ccccc3)nc2cc1C [Compound R9] | 
5 | 25 | > 50 |  |  | Cc1cc2nc3c(nc2cc1C)-c1ccccc1C3=O [Compound R15] | 
6 |  | 1.6 |  |  | COc1cc2ncnc(Nc3cccc(Cl)c3)c2cc1OC [Compound P13a] | IC50 (HER2; [6]): < 50 µM
7 | 20.9 | > 50 |  |  | Cc1ccc2ncnc(Nc3ccc4c(c3)OCO4)c2c1 [Compound P14b] | IC50 (human EGF receptor; [5]): < 50 µM; IC50 (HER2; [6]): > 50 µM

Continued, compound first:

Row | SMILES | IC50 (human EGF receptor; [3]) [µM] | IC50 (HER2; [4]) [µM] | IC50 (human EGF receptor; [7]) [µM] | IC50 (HER2; [9]) [µM] | further results
8 | N#C/C(=C\c1ccc(O)c(O)c1)C(=O)NCCCCc1ccccc1 [Compound M10] | > 50 | 30.6 | ≥ 50 |  | IC50 (HER2; [8]): 30.6 µM
9 | CC(C)(C)c1cc(C=C(C#N)C#N)cc(Br)c1O [Compound M14] | 37.2 | > 50 | 37.2 | > 50 | 
10 | CC(C)c1cc(/C=C(\C#N)C(N)=S)cc(C(C)C)c1O [Compound M25, (E)-2-Aminothiocarbonyl-3-(3,5-diisopropyl-4-hydroxyphenyl)acrylonitrile] |  |  | > 100 | 3.1 | 
11 | N#CC(C#N)=NNc1cccc(Cl)c1 [Compound Q11] |  |  |  |  | IC50 (human EGF receptor; Estimated IC50 Cellular Kinase Assays EGFR (EGF-3T3), Table V): > 50 µM; IC50 (HER2; [10]): 11.1 µM; inhibition of HER2 activity (HER2; significantly inhibit = IC50 less than 50 μM): significantly inhibited
12 | N#CC(C#N)=Cc1cc(O)c(O)c(I)c1 [Compound M12] | 13.4 | > 50 | 13.4 | > 50 | 
13 | CC(C)c1cc(C=C(C#N)C#N)cc(C(C)C)c1O [Compound M19] | > 50 |  | > 50 |  | IC50 (HER2; [10]): 10.6 µM; IC50 (HER2; [8]): 10.6 µM
14 | N#C/C(=C\c1cc(O)c(O)c(I)c1)C(=O)NCc1ccccc1 [Compound M23] |  |  | 17 | 26 | 
15 | CC(C)(C)c1cc(C=C(C#N)c2[nH]nc(N)c2C#N)cc(C(C)(C)C)c1O [Compound M17] | 8.65 | 8.58 | 8.65 | 8.58 | 
16 | CC(C)c1cc(/C=C(\C#N)C(=O)Nc2ccc(C(F)(F)F)cc2)cc(C(C)C)c1O [Compound M28, (E)-3-(3,5-Diisopropyl-4-hydroxyphenyl)-2-[(4-trifluoromethyl)phenylaminocarbonyl]acrylonitrile] |  |  |  | 2.2 | IC50 ([1]; Homo sapiens, MCF7, 96 h): 12 µM; IC50 ([2]; Homo sapiens, MCF7, 96 h): 2 µM
17 | Cc1cc(/C=C(\C#N)S(=O)(=O)/C(C#N)=C/c2cc(C)c(O)c(C)c2)cc(C)c1O [Compound M38] |  |  | > 100 | 14 | activity in cellular assays (HER2; cellular assays of the Examples, versus analogous compounds having bulkier R1 and R3 groups): less activity; IC50 [1]: > 100 µM; IC50 [2]: > 100 µM
18 | N#C/C(=C\c1ccc([N+](=O)[O-])c(O)c1)C(=O)NCCCc1ccccc1 [Compound M39, (E)-3-(3-Hydroxy-4-nitrophenyl)-2-[(3-phenyl-n-propyl)aminocarbonyl]acrylonitrile] |  |  | 6.8 | 39 | 
